Source: patent US20250325491A1, “POLYVALENT MOLECULE BASED LIPID NANOPARTICLES FOR NUCLEIC ACID DELIVERY” (Bio-TRIP B.V., priority 2022, published 2025)
Like-named read-outs stand apart in the source and are kept apart here.

How the values were obtained:
[1] = Solubility of the polyvalent molecules in ethanol, iso-propanol and tri-caprylin
Protocol: The solubility can be checked by stirring about 20 mg of the polyvalent molecule in 1 gram of tricaprylin, ethanol or iso-propanol, and assessing whether all material spontaneously dissolves to create a clear/transparent solution (with a concentration of about 2 w/w %). The test can be done at about 20 degrees centigrade (room temperature) or at about 37 degrees centigrade.
Spontaneous dissolution upon stirring at room temperature giving a clear solution is a mark for solubility.

[2] = Dynamic light scattering (DLS) of nanoparticles; assay type: physicochemical; conditions: siRNA-aNPs containing the polyvalent material (Table S3); SD over individual repeats
Protocol: The hydrodynamic diameter of the formulated particles was determined by a number-weighted mean diameter provided by dynamic light scattering (DLS) using a Zetasizer Nano ZS in combination with a Malvern Zetasizer NanoSampler (Malvern Instruments, Worcestshire, UK). The size dispersity was measured as the poly dispersity index (PDI). For the DLS measurements, 100 μl of the formulated nanoparticle was diluted into 700 μl of PBS (137 mM NaCl, 2.7 mM KCl, 10 mM Na2HPO4 and 1.8 mM KH2PO4) and equilibrated at room temperature before the analysis. Each sample was measured 5 times, 10 runs of each 10 seconds, at wavelength 633 nm, without fixing the attenuator and measurement position.

[3] = Stability of nanoparticle formulations (phase separation on dialysis or storage); assay type: physicochemical; design: key to phase separation of siRNA-aNPs (Table S4): *: Indicates phase separation after two days of storage in the refrigerator at 4° C; key to phase separation of siRNA-aNPs (footnote mark, Table S5): *: Indicates phase separation after two days storage in the fridge at 4° C.; **: Indicates phase separation after overnight dialysis; conditions: siRNA-aNPs containing the polyvalent material; for phase separation of siRNA-aNPs (footnote mark, Table S5): overnight dialysis or storage at 4° C; for phase separation of siRNA-aNPs (Table S4): storage in the refrigerator at 4° C
RAW 264.7 cell line = assay: MTS cytotoxicity assay; assay type: cell-based; conditions: RAW 264.7 cell line exposed to siRNA-aNPs with increasing amounts of the polyvalent molecule (FIG. 10)
Protocol: MTS assays were carried out on multiple apolipoprotein nanoparticles (aNPs) of the invention. These assays were executed in line with protocols that are known in the art.

[4] = Cryo-TEM of nanoparticles; assay type: physicochemical
Protocol: Size and shape of the nanoparticles was also assessed by cryo-transmission electron microscopy (cryo-TEM). The surface of 200-mesh lacey carbon supported copper grids (Electron Microscopy Sciences) was plasma charged for 40 seconds using a carbon coater (Cressington 208). Subsequently, 3 μl of nanoparticle sample (˜1 mg protein/ml) was pipetted on a grid and vitrified into a thin film by plunge vitrification in liquid ethane. This step was performed by using an automated robot (FEI Vitrobot Mark IV). Cryo-TEM imaging was acquired on the cryo-transmission electron microscope TITAN (Thermo Fisher), equipped with a field emission gun (FEG), a post-column Gatan imaging filter (model 2002) and a post-GIF 2 k×2 k Gatan CCD camera (model 794). The imaging was performed at 300 kV acceleration voltage in bright-field TEM mode with zero-loss energy filtering at 24,000× magnification (dose rate of 11.8 e−/Å2·s), and 1s acquisition time. Pictures and results are reported in Table S6, FIG. 7, FIG. 8, FIG. 9 (A), FIG. 15.

[5] = 20 mg material per gram of solvent, spontaneous dissolution upon stirring giving a clear solution

| SMILES | solubility in ethanol, iso-propanol and tri-caprylin [1, 5] | DLS Hydrodynamic diameter (number mean) [2] [nm] | DLS PDI [2] | also measured |
| --- | --- | --- | --- | --- |
| CCCCCCCCC=CCCCCCCCC(=O)NC(CCCNC(=N)N)C(=O)NCCCN(CCCCN(CCCNC(=O)C(CCCNC(=N)N)NC(=O)CCCCCCCC=CCCCCCCCC)CCCNC(=O)C(CCCNC(=N)N)NC(=O)CCCCCCCC=CCCCCCCCC)CCCNC(=O)C(CCCNC(=N)N)NC(=O)CCCCCCCC=CCCCCCCCC (centres unmarked) [Example J11, G1-Arginine-Oleate-4] | soluble in all three solvents at room temperature | – | – | – |
| CCCCCCCCC(O)CN(CCCN(CC(O)CCCCCCCC)CC(O)CCCCCCCC)CCCN(CC(O)CCCCCCCC)CC(O)CCCCCCCC (mixture of isomers) [Example G7, Bis(3-aminopropyl)amine-EPX-C8-5] | soluble in all three solvents at room temperature | 54 ± 1 | 0.2 ± 0.06 | – |
| CCCCCCCCC(O)CN(CCN(CC(O)CCCCCCCC)CC(O)CCCCCCCC)CCN(CC(O)CCCCCCCC)CC(O)CCCCCCCC (mixture of isomers) [Example G8, Bis(2-amino-ethyl)amine-EPX-C8-5] | soluble in all three solvents at room temperature | 84 ± 45 | 0.2 ± 0.05 | – |
| CCCCCCCCCCCCCCOC(=O)CCN(CCCN(CCCCN(CCCN(CCC(=O)OCCCCCCCCCCCCCC)C(C)=O)CCCN(CCC(=O)OCCCCCCCCCCCCCC)C(C)=O)CCCN(CCC(=O)OCCCCCCCCCCCCCC)C(C)=O)C(C)=O [Example B2, G1-ACR-nC14-4/Ac-4] | soluble in all three solvents at room temperature | 67 | 0.09 | phase separation of siRNA-aNPs (footnote mark, Table S5) [3]: B2 *; phase separation of siRNA-aNPs (Table S4) [3]: B2 * |
| CCCCCCCCOC(=O)CCN(CCCN(C)CCCN(CCC(=O)OCCCCCCCC)CCC(=O)OCCCCCCCC)CCC(=O)OCCCCCCCC [Example A11, Bis-(3-aminopropyl)methylamine-ACR-C8-4] | soluble in all three solvents at room temperature | 136 ± 45 | 0.14 ± 0.04 | – |
| CCCCCCCCOC(=O)CCN(CCC(=O)OCCCCCCCC)CCN(CCC(=O)OCCCCCCCC)CCN(CCC(=O)OCCCCCCCC)CCC(=O)OCCCCCCCC [Example A10, Bis(2-aminoethyl)amine-ACR-C8-5] | – | – | – | solubility in ethanol, iso-propanol and tri-caprylin [1]: soluble in all three solvents at room temperature |
| CCCCCCCCCCCCCCOC(=O)CCN(C)CCCN(CCCCN(CCCN(C)CCC(=O)OCCCCCCCCCCCCCC)CCCN(C)CCC(=O)OCCCCCCCCCCCCCC)CCCN(C)CCC(=O)OCCCCCCCCCCCCCC [Example H1, G1-ACR-nC14-4/CH3-4] | – | 66 ± 7 | 0.45 ± 0.43 | phase separation of siRNA-aNPs (footnote mark, Table S5) [3]: H1 *; phase separation of siRNA-aNPs (Table S4) [3]: H1 * |
| CCCCCCCCC(O)CN(CCCN(C)CCCN(CC(O)CCCCCCCC)CC(O)CCCCCCCC)CC(O)CCCCCCCC (mixture of isomers) [Example G9, Bis(3-aminopropyl)methylamine-EPX-C8-4] | – | 73 ± 10 | 0.18 ± 0.08 | – |
| CC(C)CCCCCCCOC(=O)CCN(CCCN(CCCCN(CCCN(CCC(=O)OCCCCCCCC(C)C)CCC(=O)OCCCCCCCC(C)C)CCCN(CCC(=O)OCCCCCCCC(C)C)CCC(=O)OCCCCCCCC(C)C)CCCN(CCC(=O)OCCCCCCCC(C)C)CCC(=O)OCCCCCCCC(C)C)CCC(=O)OCCCCCCCC(C)C [Example A6, G1-ACR-isoC10-8] | – | 48 ± 1 | 0.14 ± 0.02 | cytotoxicity (MTS assay) (RAW 264.7 cell line): do not exercise cytotoxicity; diameter of siRNA-aNPs visible in cryo-TEM and immuno-gold staining TEM images ([4]; siRNA-aNPs containing A6 (FIG. 9)): about 50 nm; Cryo-TEM Diameter ([4]; siRNA-aNPs containing the polyvalent material, SD over n individual particles): 53 ± 11 nm; Cryo-TEM PDI ([4]; siRNA-aNPs containing the polyvalent material, n individual particles): 0.02 |
| CCCCCCCCC=CCCCCCCCC(=O)NCCCCC(N)C(=O)NCCCN(CCCCN(CCCNC(=O)C(N)CCCCNC(=O)CCCCCCCC=CCCCCCCCC)CCCNC(=O)C(N)CCCCNC(=O)CCCCCCCC=CCCCCCCCC)CCCNC(=O)C(N)CCCCNC(=O)CCCCCCCC=CCCCCCCCC (centres unmarked) [Example J10, G1-Lysine-N^6-Oleate-4] | soluble in all three solvents at room temperature | – | – | – |
| CCCCCCCCOC(=O)CCN(CCCN(CCC(=O)OCCCCCCCC)CCC(=O)OCCCCCCCC)CCCN(CCC(=O)OCCCCCCCC)CCC(=O)OCCCCCCCC [Example A9, Bis(3-Aminopropyl)Amine-ACR-C8-5] | soluble in all three solvents at room temperature | – | – | – |
| CCCCCCCCCCCCCCOC(=O)CCN(CCCN(CCCCN(CCCN(CCC(=O)OCCCCCCCCCCCCCC)CCC(=O)OCCCCCCCCCCCCCC)CCCN(CCC(=O)OCCCCCCCCCCCCCC)CCC(=O)OCCCCCCCCCCCCCC)CCCN(CCC(=O)OCCCCCCCCCCCCCC)CCC(=O)OCCCCCCCCCCCCCC)CCC(=O)OCCCCCCCCCCCCCC [Example A3, G1-ACR-nC14-8] | – | 55 ± 0.7 | 0.14 ± 0.01 | – |
| CCCCCCCCCCC(O)CN(CCCN(CCCCN(CCCN(CC(O)CCCCCCCCCC)CC(O)CCCCCCCCCC)CCCN(CC(O)CCCCCCCCCC)CC(O)CCCCCCCCCC)CCCN(CC(O)CCCCCCCCCC)CC(O)CCCCCCCCCC)CC(O)CCCCCCCCCC (mixture of isomers) [Example G2, G1-EPX-nC10-8] | soluble in all three solvents at room temperature | 55 ± 4 | 0.10 ± 0.01 | – |
